This test concerns Phytophthora infestans. The test is described as follows: Antifungal activity against phenylamide-resistant Phytophthora infestans 7-1 assessed as inhibition of mycelial growth after 5 to 7 days. It counts as functional, organism-based, 07-Jan. Conditions: for IC50: Phytophthora infestans, 07-Jan, read-out: I50.

Converted amounts (≈) assume the structure as drawn.

With `COCC(=O)N(c1c(C)cccc1C)C(C)C(=O)OC` (centres undefined) [METALAXYL], the MIC is more than 10 µg/mL and the IC50 was more than 10 µg/mL.

For `CC(C)OC(=O)N[C@H](C(=O)N[C@H](C)c1nc2ccc(F)cc2s1)C(C)C` [BENTHIAVALICARB-ISOPROPYL], the MIC stood at 0.1 µg/mL (≈ 0.262 µM) and the IC50 was 0.04 µg/mL (≈ 0.105 µM).

For the origin of these results see ChEMBL document CHEMBL3046782, “Fungicidial Activity of Benthiavalicarb-isopropyl against Phytophthora infestans and Its Controlling Activity against Late Blight Diseases” (J Pestic Sci, 2005).
